What was measured:
[1] = molecular target: T1, GABAA receptor α1β2γ2 (Homo sapiens, UniProt P14867+P47870); test: Patch clamp electrophysiology, Qpatch in Ltk cells; format: cell-based; conditions: 10 μM test article, GABA EC20 2 μM, read-out: GABA (α1β2γ2) Qpatch in Ltk, % efficacy at 10 μM
T1 construct: expressed in transfected cells
Protocol: (§1) Patch Clamp Electrophysiology of Recombinant α1β2γ2 and α4β3δ GABAA Receptors
(§2) Cellular electrophysiology is used to measure the pharmacological properties of our GABAA receptor modulators in heterologous cell systems. Each compound is tested for its ability to affect GABA mediated currents at a submaximal agonist dose (GABA EC20=2 μM). LTK cells are stably transfected with the α1β2γ2 subunits of the GABA receptor and CHO cells are transiently transfected with the α4β3δ subunits via the Lipofecatamine method. Cells were passaged at a confluence of about 50-80% and then seeded onto 35 mm sterile culture dishes containing 2 ml culture complete medium without antibiotics or antimycotics. Confluent clusters of cells are electrically coupled (Pritchett et al., Science, 1988, 242, 1306-1308.). Because responses in distant cells are not adequately voltage clamped and because of uncertainties about the extent of coupling (Verdoorn et al., Neuron 1990, 4, 919-928.), cells were cultivated at a density that enables the recording of single cells (without visible connections to other cells).
(§3) Whole cell currents were measured with HEKA EPC-10 amplifiers using PatchMaster software or by using the high throughput QPatch platform (Sophion). Bath solution for all experiments contained (in mM): NaCl 137 mM, KCl 4 mM, CaCl2 1.8 mM, MgCl2 1 mM, HEPES 10 mM, D-Glucose 10 mM, pH (NaOH) 7.4. In some cases 0.005% cremophor was also added. Intracellular (pipette) solution contained: KCl 130 mM, MgCl2 1 mM, Mg-ATP 5 mM, HEPES 10 mM, EGTA 5 mM, pH 7.2. During experiments, cells and solutions were maintained at room temperature (19° C.-30° C.). For manual patch clamp recordings, cell culture dishes were placed on the dish holder of the microscope and continuously perfused (1 ml/min) with bath solution. After formation of a Gigaohm seal between the patch electrodes and the cell (pipette resistance range: 2.5 MΩ-6.0 MΩ; seal resistance range: >1 GΩ) the cell membrane across the pipette tip was ruptured to assure electrical access to the cell interior (whole-cell patch-configuration). For experiments using the QPatch system, cells were transferred as suspension to the QPatch system in the bath solution and automated whole cell recordings were performed.
(§4) Cells were voltage clamped at a holding potential of −80 mV. For the analysis of test articles, GABA receptors were stimulated by 2 μM GABA after sequential pre-incubation of increasing concentrations of the test article. Pre-incubation duration was 30 s and the duration of the GABA stimulus was 2 s. Test articles were dissolved in DMSO to form stock solutions (10 mM). Test articles were diluted to 0.01, 0.1, 1, and 10 μM in bath solution. All concentrations of test articles were tested on each cell. The relative percentage potentiation was defined as the peak amplitude in response to GABA EC20 in the presence of the test article divided by the peak amplitude in response to GABA EC20 alone, multiplied by 100.

[2] = molecular target: T2, GABAA receptor α4β3δ (Homo sapiens, UniProt P28472+P48169); test: Patch clamp electrophysiology, manual patch in CHO cells; format: cell-based; conditions: 10 μM test article, GABA EC20 2 μM, read-out: GABA (α4β3δ) Manual patch in CHO, % efficacy at 10 μM
T2 construct: expressed in transfected cells; host or cells: CHO cells (transient, lipofection)
Protocol: as §1, §2, §3, §4

[3] = molecular target: [35S]-TBPS binding, rat brain cortical membranes (GABA receptor complex); test: Steroid inhibition of [35S]-TBPS binding; conditions: 3 nM [35S]-TBPS, 5 μM GABA
Protocol: Steroid Inhibition of TBPS Binding
[35S]-t-Butylbicyclophosphorothionate (TBPS) binding assays using rat brain cortical membranes in the presence of 5 μM GABA has been described (Gee et al, J. Pharmacol. Exp. Ther. 1987, 241, 346-353; Hawkinson et al, Mol. Pharmacol. 1994, 46, 977-985; Lewin, A. H et al., Mol. Pharmacol. 1989, 35, 189-194).
Briefly, cortices are rapidly removed following decapitation of carbon dioxide-anesthetized Sprague-Dawley rats (200-250 g). The cortices are homogenized in 10 volumes of ice-cold 0.32 M sucrose using a glass/teflon homogenizer and centrifuged at 1500×g for 10 min at 4° C. The resultant supernatants are centrifuged at 10,000×g for 20 min at 4° C. to obtain the P2 pellets. The P2 pellets are resuspended in 200 mM NaCl/50 mM Na-K phosphate pH 7.4 buffer and centrifuged at 10,000×g for 10 min at 4° C. This washing procedure is repeated twice and the pellets are resuspended in 10 volumes of buffer. Aliquots (100 μL) of the membrane suspensions are incubated with 3 nM [^35S]-TBPS and 5 μL aliquots of test drug dissolved in dimethyl sulfoxide (DMSO) (final 0.5%) in the presence of 5 μM GABA. The incubation is brought to a final volume of 1.0 mL with buffer. Nonspecific binding is determined in the presence of 2 μM unlabeled TBPS and ranged from 15 to 25%. Following a 90 min incubation at room temp, the assays are terminated by filtration through glass fiber filters (Schleicher and Schuell No. 32) using a cell harvester (Brandel) and rinsed three times with ice-cold buffer. Filter bound radioactivity is measured by liquid scintillation spectrometry. Non-linear curve fitting of the overall data for each drug averaged for each concentration is done using Prism (GraphPad). […] The concentration of test compound producing 50% inhibition (IC50) of specific binding and the maximal extent of inhibition (Imax) are determined for the individual experiments with the same model used for the overall data and then the means±SEM.s of the individual experiments are calculated.
Various compounds are or can be screened to determine their potential as modulators of [^35S]-TBPS binding in vitro. These assays are or can be performed in accordance with the above discussed procedures.

[4] = molecular target: T3, GABAA-R (Homo sapiens, UniProt P14867+P47870); test: Electrophysiological evaluation at GABAA-R (Table 2); format: cell-based; conditions: GABAA-R electrophysiology; for EC50: read-out: EC50
T3 sequence (P14867 1-456): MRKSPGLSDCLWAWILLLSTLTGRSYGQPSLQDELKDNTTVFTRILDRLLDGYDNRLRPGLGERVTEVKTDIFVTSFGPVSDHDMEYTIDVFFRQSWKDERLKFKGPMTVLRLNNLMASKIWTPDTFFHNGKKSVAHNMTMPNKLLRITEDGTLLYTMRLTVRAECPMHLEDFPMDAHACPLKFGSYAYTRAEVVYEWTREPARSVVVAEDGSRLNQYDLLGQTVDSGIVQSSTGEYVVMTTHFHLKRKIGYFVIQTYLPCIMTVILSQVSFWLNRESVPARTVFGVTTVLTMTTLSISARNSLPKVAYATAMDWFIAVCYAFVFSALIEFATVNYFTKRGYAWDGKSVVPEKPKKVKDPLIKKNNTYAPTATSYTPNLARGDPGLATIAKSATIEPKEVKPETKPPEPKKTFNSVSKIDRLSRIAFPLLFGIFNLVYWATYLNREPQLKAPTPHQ
T3 sequence (P47870 1-512): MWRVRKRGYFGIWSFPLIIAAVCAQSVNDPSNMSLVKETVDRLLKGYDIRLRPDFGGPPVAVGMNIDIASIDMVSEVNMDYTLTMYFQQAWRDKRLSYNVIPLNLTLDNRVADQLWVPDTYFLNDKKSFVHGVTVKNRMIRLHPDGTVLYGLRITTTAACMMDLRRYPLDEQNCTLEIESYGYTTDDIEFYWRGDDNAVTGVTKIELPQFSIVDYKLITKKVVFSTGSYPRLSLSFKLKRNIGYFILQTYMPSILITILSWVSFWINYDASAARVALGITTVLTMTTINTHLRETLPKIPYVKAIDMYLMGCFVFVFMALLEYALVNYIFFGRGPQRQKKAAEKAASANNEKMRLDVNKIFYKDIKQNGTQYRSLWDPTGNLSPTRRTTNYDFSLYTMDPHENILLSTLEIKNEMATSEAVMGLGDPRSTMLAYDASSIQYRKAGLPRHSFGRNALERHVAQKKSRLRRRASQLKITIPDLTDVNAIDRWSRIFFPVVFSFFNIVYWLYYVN
Protocol: as §1, §2, §3, §4

T2 sequence (P48169 36-554): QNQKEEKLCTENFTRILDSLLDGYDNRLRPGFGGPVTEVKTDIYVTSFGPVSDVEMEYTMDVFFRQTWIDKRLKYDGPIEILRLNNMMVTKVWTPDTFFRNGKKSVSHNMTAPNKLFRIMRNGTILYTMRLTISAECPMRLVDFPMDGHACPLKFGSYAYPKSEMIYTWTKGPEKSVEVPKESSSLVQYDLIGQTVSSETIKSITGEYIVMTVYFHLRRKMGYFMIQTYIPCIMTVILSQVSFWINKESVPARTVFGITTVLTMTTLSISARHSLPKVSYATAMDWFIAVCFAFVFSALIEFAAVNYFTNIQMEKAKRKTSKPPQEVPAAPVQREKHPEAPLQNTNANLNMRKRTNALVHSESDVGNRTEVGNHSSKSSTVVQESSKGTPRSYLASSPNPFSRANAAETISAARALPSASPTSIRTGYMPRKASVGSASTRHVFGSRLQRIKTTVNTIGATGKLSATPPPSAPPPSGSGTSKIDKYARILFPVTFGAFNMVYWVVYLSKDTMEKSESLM
T2 sequence (P28472 26-473): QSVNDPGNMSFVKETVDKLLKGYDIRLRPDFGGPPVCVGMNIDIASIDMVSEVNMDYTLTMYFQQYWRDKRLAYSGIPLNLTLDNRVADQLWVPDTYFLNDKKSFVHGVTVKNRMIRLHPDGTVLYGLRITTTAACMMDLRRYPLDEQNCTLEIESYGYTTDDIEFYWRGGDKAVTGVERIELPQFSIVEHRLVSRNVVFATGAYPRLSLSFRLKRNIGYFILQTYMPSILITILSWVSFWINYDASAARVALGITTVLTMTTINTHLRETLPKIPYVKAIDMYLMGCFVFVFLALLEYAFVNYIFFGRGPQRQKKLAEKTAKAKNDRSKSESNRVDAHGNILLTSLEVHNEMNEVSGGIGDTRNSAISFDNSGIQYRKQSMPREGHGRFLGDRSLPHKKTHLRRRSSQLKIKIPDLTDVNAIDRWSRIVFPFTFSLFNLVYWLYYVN
T2 sequence (O14764 25-452 partner): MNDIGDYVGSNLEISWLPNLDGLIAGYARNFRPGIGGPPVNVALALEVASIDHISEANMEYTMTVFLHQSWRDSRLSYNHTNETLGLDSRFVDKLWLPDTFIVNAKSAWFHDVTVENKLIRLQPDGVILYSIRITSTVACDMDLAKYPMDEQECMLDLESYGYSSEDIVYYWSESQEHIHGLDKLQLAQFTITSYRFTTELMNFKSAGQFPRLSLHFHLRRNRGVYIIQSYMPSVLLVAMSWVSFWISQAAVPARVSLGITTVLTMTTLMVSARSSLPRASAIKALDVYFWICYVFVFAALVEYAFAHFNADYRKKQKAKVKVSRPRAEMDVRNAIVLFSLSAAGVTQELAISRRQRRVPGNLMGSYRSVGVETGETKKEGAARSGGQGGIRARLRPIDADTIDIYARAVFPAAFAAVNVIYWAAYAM
T1 sequence (P18507 40-475 partner, one chain of several): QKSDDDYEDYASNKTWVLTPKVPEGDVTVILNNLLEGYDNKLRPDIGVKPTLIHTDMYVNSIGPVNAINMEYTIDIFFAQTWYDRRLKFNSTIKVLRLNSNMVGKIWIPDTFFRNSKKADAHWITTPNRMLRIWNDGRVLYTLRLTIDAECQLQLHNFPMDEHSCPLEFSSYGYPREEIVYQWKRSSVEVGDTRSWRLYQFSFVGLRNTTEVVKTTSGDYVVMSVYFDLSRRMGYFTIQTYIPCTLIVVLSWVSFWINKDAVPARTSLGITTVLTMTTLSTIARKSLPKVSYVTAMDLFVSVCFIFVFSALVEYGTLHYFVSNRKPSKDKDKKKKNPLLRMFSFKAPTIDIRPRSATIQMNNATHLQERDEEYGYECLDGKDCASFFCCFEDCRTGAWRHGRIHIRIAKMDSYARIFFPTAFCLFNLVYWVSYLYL

SMILES	Emax at 10 µM [1]	Emax at 10 µM [2]	IC50 [3]	Emax [4]	EC50 [4]
C[C@@]1(O)CC[C@@H]2[C@H]3CC[C@]4(C)[C@@H](C(=O)Cn5cc(S(C)(=O)=O)cn5)CC[C@H]4[C@@H]3C[C@@H](F)[C@H]2C1 [SB-15]	100 to 500%	> 500%	–	–	–
Cc1ccnn1CC(=O)[C@H]1CC[C@H]2[C@@H]3CC[C@@H]4C[C@](C)(O)CC[C@@H]4[C@H]3CC[C@]12C [SA-10]	100 to 500%	–	50 to 100 nM	0 to 500%	> 2000 nM
C[C@]12CC[C@H]3[C@@H](CC[C@@H]4C[C@@](O)(CF)CC[C@@H]43)[C@@H]1CC[C@@H]2C(=O)Cn1cccn1 [SA-31]	100 to 500%	–	100 to 500 nM	–	–
CCOC(=O)c1cnn(CC(=O)[C@H]2CC[C@H]3[C@@H]4CC[C@@H]5C[C@](C)(O)CC[C@@H]5[C@H]4CC[C@]23C)c1 [SA-3]	> 500%	–	< 10 nM	–	–
C[C@]12CC[C@H]3[C@@H](CC[C@@H]4C[C@@](O)(CF)CC[C@@H]43)[C@@H]1CC[C@@H]2C(=O)Cn1cc(C#N)cn1 [SA-32]	> 500%	> 500%	10 to 50 nM	–	–
C[C@@]1(O)CC[C@H]2[C@H](CC[C@@H]3[C@@H]2CC[C@]2(C)[C@@H](C(=O)Cn4nccc4C(F)(F)F)CC[C@@H]32)C1 [SA-2]	> 500%	–	50 to 100 nM	500 to 1000%	> 2000 nM
C[C@@]1(O)CC[C@H]2[C@H](CC[C@@H]3[C@@H]2CC[C@]2(C)[C@@H](C(=O)Cn4cc([N+](=O)[O-])cn4)CC[C@@H]32)C1 [SA-8]	100 to 500%	–	10 to 50 nM	0 to 500%	1000 to 2000 nM
COC[C@@]1(O)CC[C@H]2[C@@H](CC[C@@H]3[C@@H]2CC[C@]2(C)[C@@H](C(=O)Cn4cc(C#N)cn4)CC[C@@H]32)C1 [SB-5]	> 500%	100 to 500%	10 to 50 nM	–	–
CC[C@@]1(O)CC[C@H]2[C@H](CC[C@@H]3[C@@H]2CC[C@]2(C)[C@@H](C(=O)Cn4cccn4)CC[C@@H]32)C1 [SA-35]	100 to 500%	–	100 to 500 nM	–	–
C[C@]12CC[C@H]3[C@@H](CC[C@H]4C[C@@](O)(CF)CC[C@@H]43)[C@@H]1CC[C@@H]2C(=O)Cn1cccn1 [SB-23]	100 to 500%	–	100 to 500 nM	–	–
C[C@@]1(O)CC[C@@H]2[C@H]3CC[C@]4(C)[C@@H](C(=O)Cn5cccn5)CC[C@H]4[C@@H]3C[C@@H](F)[C@H]2C1 [SB-10]	100 to 500%	100 to 500%	100 to 500 nM	–	–
COC[C@@]1(O)CC[C@H]2[C@H](CC[C@@H]3[C@@H]2CC[C@]2(C)[C@@H](C(=O)Cn4cccn4)CC[C@@H]32)C1 [SA-23]	> 500%	–	100 to 500 nM	–	–
C[C@@H]1C[C@H]2[C@@H](CC[C@@H]3[C@@H]2CC[C@]2(C)[C@@H](C(=O)Cn4cccn4)CC[C@@H]32)C[C@]1(C)O [SB-18]	100 to 500%	–	100 to 500 nM	–	–
C[C@@]1(O)CC[C@H]2[C@H](CC[C@@H]3[C@@H]2CC[C@]2(C)[C@@H](C(=O)Cn4ccc(C(F)(F)F)n4)CC[C@@H]32)C1 [SA-1]	> 500%	–	< 10 nM	500 to 1000%	1000 to 2000 nM
Cc1ccn(CC(=O)[C@H]2CC[C@H]3[C@@H]4CC[C@@H]5C[C@](C)(O)CC[C@@H]5[C@H]4CC[C@]23C)n1 [SA-11]	> 500%	–	10 to 50 nM	500 to 1000%	1000 to 2000 nM
C[C@@]1(O)CC[C@@H]2[C@H]3CC[C@]4(C)[C@@H](C(=O)Cn5cc(C#N)cn5)CC[C@H]4[C@@H]3C[C@@H](F)[C@H]2C1 [SB-11]	100 to 500%	> 500%	–	–	–
COC[C@@]1(O)CC[C@H]2[C@H](CC[C@@H]3[C@@H]2CC[C@]2(C)[C@@H](C(=O)Cn4cc(C#N)cn4)CC[C@@H]32)C1 [SA-24]	> 500%	> 500%	10 to 50 nM	–	–
COC[C@@]1(O)CC[C@H]2[C@@H](CC[C@@H]3[C@@H]2CC[C@]2(C)[C@@H](C(=O)Cn4cccn4)CC[C@@H]32)C1 [SB-4]	> 500%	–	100 to 500 nM	–	–
C[C@]12CC[C@H]3[C@@H](CC[C@@H]4C[C@@](O)(C(F)F)CC[C@@H]43)[C@@H]1CC[C@@H]2C(=O)Cn1cccn1 [SA-27]	100 to 500%	–	100 to 500 nM	–	–
C[C@@]1(O)CC[C@H]2[C@@H](CC[C@@H]3[C@@H]2CC[C@]2(C)[C@@H](C(=O)Cn4cc(C#N)cn4)CC[C@@H]32)C1 [SB-2]	100 to 500%	100 to 500%	–	–	–
CC(=O)c1ccn(CC(=O)[C@H]2CC[C@H]3[C@@H]4CC[C@@H]5C[C@](C)(O)CC[C@@H]5[C@H]4CC[C@]23C)n1 [SA-5]	> 500%	–	< 10 nM	–	> 2000 nM

From patent publication US12201640B2, “19-nor C3,3-disubstituted C21-n-pyrazolyl steroids and methods of use thereof” (Sage Therapeutics, Inc., priority 2013, dated 2025)
